These results are taken from publication PMC11413854, “Reversible Control of Native GluN2B-Containing NMDA Receptors with Visible Light” (ACS Chemical Neuroscience, 2024).

The experiment relates to cultured cortical neurons at DIV 14. Description: NMDA excitotoxicity test, neuronal survival by MTT. The experiment is classed as cell-based, mouse. The note with it: for neuronal survival: 5 µM inhibitor + 100 µM NMDA + 10 µM glycine; for % of survival, Mean: compound 5µM with NMDA 100µM, MTT A(540 nm) normalized to control (100) and NMDA alone (0). The text has this:
We first investigated whether OptoNAM-3 could be used in the context of a patho-physiological process related to GluN1/GluN2B receptors. Overactivation of NMDARs induced by tonic exposure to glutamate or NMDA is well-known to trigger neuronal death.[6] GluN1/GluN2B receptors are thought to be the major player of this neurotoxicity, and GluN1/GluN2B antagonists have proven to be potent neuroprotectants in vitro and in vivo.[5],[15] To test the neuroprotective activity of OptoNAM-3 and its photodependence of action, we performed a protocol of excitotoxicity based on exposure to NMDA (100 μM) of cultured cortical neurons at DIV 14,[15] in the presence of OptoNAM-3. […] OptoNAM-3 in the dark, at a concentration of 5 μM, induced, like ifenprodil, an ∼50% increase in cell survival (Figure S4). […] OptoNAM-3 is therefore able to promote cell survival in neuron cultures in a photodependent manner.
Mice were housed in the IBENS rodent central facility duly accredited by the French Ministry of Agriculture. All experiments were performed in compliance with French and European regulations on care and protection of laboratory animals (EU Directive 2010/63, French Law 2013–118, February 6, 2013), and were approved by local ethics committees and by the French Ministry of Research and Innovation (authorization numbers #05137.02, APAFIS #28867-2020121814485893). Dissociated cultures of cortical neurons were prepared from mouse embryos at E18 as described previously.[84] After removing meninges, cortices were placed in ice-cold HBSS solution. Cell dissociation was performed individually for cortices of each embryo. Cortices were incubated in 2.5% trypsin at 37 °C for 7 min, rinsed three times with 37 °C phosphate buffer saline, and finally suspended in plating medium (Neurobasal Medium, supplemented with 0.5 mM L-glutamine, 1% B27 supplement, and penicillin/streptomycin). The neurons were further dissociated by trituration, and cells were plated on poly-D-lysine coated coverslips in 24-well culture dishes at a density of 3 × 10^5 cells per well for the excitotoxicity test and that of 1 × 10^5 cells per well for patch clamp experiments. Cultures were incubated at 37 °C in a humidified atmosphere of 5% CO2. Cells were fed by changing 1/2 medium to fresh Neurobasal medium every 4 days. For the excitotoxicity experiments, after 5 days in vitro, growth of non-neuronal cells was halted by a 24 h exposure to FDX ([…] 5-fluoro-2′-deoxyuridine). The cultures were used for experiments after 6 to 14 days in vitro (DIV6–8 for patch clamp experiments and DIV14 for excitotoxicity tests).
Excitotoxicity tests were performed 14 days after the culturing step as described in ref[15]. Just before the experiments, the neuronal medium was changed and the neurons incubated in the external patch recording solution (see above). Two replicates of 24 well plates containing cultured cortical neurons were exposed to the same 4 conditions, in which the following compounds were added to the medium: (1) glycine (10 μM) alone (control); (2) glycine (10 μM) + NMDA (100 μM); (3) glycine (10 μM) + NMDA (100 μM) + 5 μM ifenprodil; and (4) glycine (10 μM) + NMDA (100 μM) + 5 μM trans-OptoNAM-3 (dark). One of the two plates was exposed to UV light (Jena analytic US, UVP Hand-held UV lamp UVGL-58, power ∼1 mW) for 2 min. The two plates were then put back in the 37 °C incubator for 10 min. Agonist exposure was terminated by washing out the exposure solution with conditioned Neurobasal medium, prior to returning the dishes to the incubator for 24 h before assessment of neuronal death.
Overall neuronal cell death was determined 24 h after NMDA exposure by the MTT test. Mitochondrial and cytosolic dehydrogenases of living cells reduce the yellow tetrazolium salt (MTT) to produce a purple formazan dye that can be detected spectrophotometrically.[85] […]

Turning to `c1ccc(/N=N/c2ccc(CCNc3ccncc3)cc2)cc1` [OptoNAM-3, (E)-N-(4-(Phenyldiazenyl)phenethyl)pyridin-4-amine], the neuronal survival by setting is: (2 min UV (365 nm), normalized to control and NMDA) 35%; (dark, normalized to control (100%) and NMDA (0%)) 50%. The “% of survival, Mean” value (Dark) is given as 48.677% and the “% of survival, Mean” value (UV) is 36.192%.
